# “And” between values parts separate entries of the source, which are not always exact repeats. Identical values can stand only once. Like-named read-outs stand apart in the source and are kept apart here.
# Key:
# [1] = test system: chick chorioallantoic membrane (CAM) blood vessel branch points; assay: Chick chorioallantoic membrane (CAM) model of angiogenesis; assay type: in vivo
# Experimental: In vivo neovascularization was examined by methods described previously. 9-12 Ten-day-old chick embryos were purchased from SPAFAS (Preston, Conn.) and incubated at 37° C. with 55% relative humidity. A hypodermic needle was used to make a small hole in the shell concealing the air sac, and a second hole was made on the broad side of the egg, directly over an avascular portion of the embryonic membrane that was identified by candling. A false air sac was created beneath the second hole by the application of negative pressure at the first hole, causing the CAM to separate from the shell. […] Thyroid hormone, hormone analogs, FGF2 or control solvents, and inhibitors were then applied to the disks and the disks allowed to dry. The disks were then suspended in PBS and placed on growing CAMs. […] At 24 hours, the MAPK cascade inhibitor PD 98059 was also added to CAMs topically by means of the filter disks. […] The number of vessel branch points contained in a circular region equal to the area of each filter disk were counted. […] In addition, each experiment was performed 3 times. The resulting angiogenesis index is the mean±SEM of new branch points.
# [2] = test system: matrigel plug angiogenesis; assay: Mouse matrigel model of angiogenesis (plug hemoglobin); assay type: in vivo, mice (C57BL/6NCr); settings: for inhibition in vivo at 10 µg/plug: Mus musculus, FGF 100 ng + test substance 10 μg/plug; for inhibition in vivo at 10 µg/plug / inhibition of FGF-induced angiogenesis (in words): numbers are Tetrac analogs of Example 13
# Experimental: Normal male mice (C57BL/6NCr) 6-8 weeks of age and weighing ˜20 g were purchased from Taconic farm. Animals were housed 4 per cage, in controlled conditions of temperature (20-24° C.); humidity (60-70%) and 12 hrs. light/dark cycle provided with food and water ad libitum. […] Aliquots of matrigel were placed into cold polypropylene tubes to prevent the matrigel from solidifying and the angiogenesis promoter added to matrigel with or without agonist. Mice were treated daily. Matrigel was subcutaneously injected as triple injection per animal at 100 μL/animal. At day 14 post plug implant all animals were killed in CO2 chamber and matrigel plugs were collected. Plug hemoglobin content was analyzed from three implants/mice (n=6 per group) to measure angiogenesis.
# The matrigel plugs dissected from the mice were carefully stripped of any remaining peritoneum. The plugs were placed into 0.5 mL tube of ddH2O and homogenized for 5-10 min. […] Absorbance was read with a Microplate Manager ELISA reader at 540 nm. […] Hemoglobin concentration is a reflection of the number of blood vessels in the plugs.
# [3] = 10 μg/matrigel plug, numbers are T4 analogs of Example 12
# [4] = 10 μg/matrigel plug, numbers are T4 analogs of Example 12, n = 6-7, Control 0.3 ± 0.1
# [5] = 1 μM; numbers are T4 analogs of Example 12
# [6] = 1 μM; numbers are T4 analogs of Example 12; mean ± SEM, n = 8; PBS 73 ± 6
# [7] = Gallus gallus, read-out: Mean % of stimulation (comparing to PBS)
# [8] = numbers are T4 analogs of Example 12
# [9] = T4 + test substance, each 10 μg/matrigel plug, n = 25, T4 alone 1.2 ± 0.4
# [10] = 0.01 uM; n = 8 per group; PBS (Control) 89.4 ± 9.3
# [11] = 0.1 uM; n = 8 per group; PBS (Control) 89.4 ± 9.3
compound,measurement,setting,value
CC(=O)NC(Cc1cc(I)c(Oc2cc(I)c(OC(C)=O)c(I)c2)c(I)c1)C(=O)O (stereo not drawn) [Compound 9],change in vivo at 0.1 µM,[1]; Gallus gallus; read-out: Mean % of stimulation (comparing to PBS),67.1 ± 5%
"CC(C)(C)OC(=O)NC(Cc1cc(I)c(Oc2cc(I)c(OCC3CO3)c(I)c2)c(I)c1)C(=O)OCC1CO1 (stereo not drawn) [T4 analog 14, Oxiran-2-ylmethyl-2-(tert-butoxycarbonylamino)-3-(4-(3,5-diiodo-4-(oxiran-2-ylmethoxy)phenoxy)-3,5-diiodophenyl)propanoate]",Mean stimulation of angiogenesis (%),[2]; [3],0 ± 17%
same,Hemoglobin (mg/mL) ± SEM,[2]; [4],0.3 ± 0.1 mg/mL
same,Mean % of stimulation (comparing to PBS),[1]; [5],56.2 ± 7.5%
same,Mean Branch points,[1]; [6],114 ± 11
"CC(C)[Si](OC(=O)C(Cc1cc(I)c(Oc2cc(I)c(OCC3CO3)c(I)c2)c(I)c1)NC(=O)OC(C)(C)C)(C(C)C)C(C)C (stereo not drawn) [T4 analog 15, Triisopropylsilyl-2-(tert-butoxycarbonylamino)-3-(4-(3,5-diiodo-4-(oxiran-2-ylmethoxy)phenoxy)-3,5-diiodophenyl)propanoate]",Mean stimulation of angiogenesis (%),[2]; [3],0 ± 17%
same,Hemoglobin (mg/mL) ± SEM,[2]; [4],0.3 ± 0.1 mg/mL
same,Mean Branch points,[1]; [6],98 ± 8
same,change in vivo at 1 µM,[1]; [7],34.2 ± 7%
same,"effect on angiogenesis, representative illustrations FIG. 23 (in words)",[1]; [8],no effect
CCNC(Cc1cc(I)c(Oc2cc(I)c(O)c(I)c2)c(I)c1)C(=O)O (stereo not drawn) [PRIAB12],Branch pts ± SEM,[1]; 0.1 μM; PBS 76.0 ± 8.5,121.7 ± 13.6
O=C(O)Cc1cc(I)c(Oc2cc(I)c(OCC3CO3)c(I)c2)c(I)c1 (stereo not drawn) [Compound 9],inhibition in vivo at 10 µg/plug,[2],100 ± 12%
"CC(C)(C)OC(=O)NC(Cc1cc(I)c(Oc2cc(I)c(O)c(I)c2)c(I)c1)C(=O)O (stereo not drawn) [T4 analog 7, 2-[(Tert-butoxycarbonyl)amino]-3-[4-(4-hydroxy-3,5-diiodophenoxy)-3,5-diiodophenyl]propanoic acid]",Branch pts ± SEM,[1]; 0.1 μM; PBS 65.2 ± 14.9,173 ± 9.9
"CC(C)(C)OC(=O)Cc1cc(I)c(Oc2cc(I)c(O)c(I)c2)c(I)c1 [Tetrac analog 3, tert-Butyl-2-(4-(4-hydroxy-3,5-diiodophenoxy)-3,5-diiodophenyl)acetate]",inhibition of FGF-induced angiogenesis (in words),[2],strong
"O=C(Cc1cc(I)c(Oc2cc(I)c(O)c(I)c2)c(I)c1)NC1CCCCC1 [Tetrac analog 4, N-cyclohexyl-2-(4-(4-hydroxy-3,5-diiodophenoxy)-3,5-diiodophenyl)acetamide]",inhibition in vivo at 10 µg/plug,[2],104 ± 12%
same,inhibition of FGF-induced angiogenesis (in words),[2],strong
same,inhibition of angiogenesis in the CAM assay (in words),[1]; numbers are Tetrac analogs of Example 13,"not as strong as compounds 3, 5, 7, and 9"
"CC(C)(C)OC(=O)NC(Cc1cc(I)c(Oc2cc(I)c(OCC3CO3)c(I)c2)c(I)c1)C(=O)OCC1CO1 (stereo not drawn) (hydrate or solvate) [T4 analog 14, Oxiran-2-ylmethyl-2-(tert-butoxycarbonylamino)-3-(4-(3,5-diiodo-4-(oxiran-2-ylmethoxy)phenoxy)-3,5-diiodophenyl)propanoate]",melting point,,105 °C
"CNC(Cc1cc(I)c(Oc2cc(I)c(O)c(I)c2)c(I)c1)C(=O)[O-].O.O.[K+] (stereo not drawn) [T4 analog 10, Potassium 3-[4-(4-hydroxy-3,5-diiodophenoxy)-3,5-diiodophenyl]-2-(methylamino)propanoate dihydrate]",Mean stimulation of angiogenesis (%),"[2]; 10 μg/matrigel plug, numbers are T4 analogs of Example 12, dihydrate",87% and 87 ± 33%
same,Hemoglobin (mg/mL) ± SEM,[2]; [4],0.8 ± 0.2 mg/mL
same,Mean % of stimulation (comparing to PBS),[1]; 0.1 μM; numbers are T4 analogs of Example 12,43.8 ± 6.5%
same,Mean Branch points,"[1]; 0.1 μM; numbers are T4 analogs of Example 12; mean ± SEM, n = 8; PBS 73 ± 6",105 ± 7
"CC(C)[Si](OC(=O)C(Cc1cc(I)c(Oc2cc(I)c(OCC3CO3)c(I)c2)c(I)c1)NC(=O)OC(C)(C)C)(C(C)C)C(C)C (stereo not drawn) (hydrate or solvate) [T4 analog 15, Triisopropylsilyl-2-(tert-butoxycarbonylamino)-3-(4-(3,5-diiodo-4-(oxiran-2-ylmethoxy)phenoxy)-3,5-diiodophenyl)propanoate]",melting point,,109 °C
tetraiodothyroacetic acid [Tetrac],Mean inhibition of angiogenesis (%),"[2]; T4 + test substance, each 10 μg/matrigel plug",89 ± 11%
same,Hemoglobin (mg/mL) ± SEM,[2]; [9],0.4 ± 0.1 mg/mL
"Cc1cc(OCC(=O)O)cc(C)c1Cc1ccc(O)c(C(C)C)c1 [GC-1, 3,5-dimethyl-4-(4′-hydroxy-3′-isopropylbenzyl)-phenoxy acetic acid]",ANGIOGENESIS INDEX,[1]; [10],169.6 ± 11.6
same,ANGIOGENESIS INDEX,[1]; [11],152.7 ± 9.0
O=C(Cc1cc(I)c(Oc2cc(I)c(OCC3CO3)c(I)c2)c(I)c1)OCC1CO1 (stereo not drawn),melting point,,116 °C
"CCNC(Cc1cc(I)c(Oc2cc(I)c(O)c(I)c2)c(I)c1)C(=O)O (stereo not drawn) [T4 analog 11, 2-(Ethylamino)-3-[4-(4-hydroxy-3,5-diiodophenoxy)-3,5-diiodophenyl]propanoic acid]","effect on angiogenesis, representative illustrations FIG. 23 (in words)",[1]; [8],proangiogenesis
CNC(Cc1cc(I)c(Oc2cc(I)c(O)c(I)c2)c(I)c1)C(=O)O (stereo not drawn) [PRIAB6],Branch pts ± SEM,[1]; 0.1 μM; PBS 76.0 ± 8.5,136.2 ± 12.4
"CC(C)[Si](OC(=O)C(Cc1cc(I)c(Oc2cc(I)c(O)c(I)c2)c(I)c1)NC(=O)OC(C)(C)C)(C(C)C)C(C)C (stereo not drawn) [T4 analog 13, Triisopropylsilyl-2-(tert-butoxycarbonylamino)-3-(4-(4-hydroxy-3,5-diiodophenoxy)-3,5-diidoclophenyl)propanoate]",Mean stimulation of angiogenesis (%),[2]; [3],0 ± 17%
same,Hemoglobin (mg/mL) ± SEM,[2]; [4],0.3 ± 0.1 mg/mL
same,Mean % of stimulation (comparing to PBS),[1]; [5],4.1 ± 6.5%
same,Mean Branch points,[1]; [6],76 ± 7
same,Mean % Inhibition,"[1]; FGF (1.25 μg/ml) + test substance, 10 μg/plug per footnote; numbers are Tetrac analogs of Example 13",44 ± 13%
same,Mean Branch points,"[1]; FGF (1.25 μg/ml) + test substance, 10 μg/plug per footnote; numbers are Tetrac analogs of Example 13; n = 8; PBS 73 ± 6, FGF 130 ± 11",105 ± 7
O=C(O)C(Cc1cc(I)c(Oc2cc(I)c(O)c(I)c2)c(I)c1)NC(c1ccccc1)(c1ccccc1)c1ccccc1 (stereo not drawn) [PRIAB2],Branch pts ± SEM,[1]; 0.1 μM; PBS 76.0 ± 8.5,136.0 ± 18.1
"O=C(O)CCc1cc(I)c(Oc2ccc(O)cc2)c(I)c1 [DITPA, 3,5-diiodothyropropionic acid]",ANGIOGENESIS INDEX,[1]; [10],133.0 ± 11.6
same,ANGIOGENESIS INDEX,[1]; [11],167.3 ± 12.7
same,ANGIOGENESIS INDEX,[1]; 0.2 mM; n = 8 per group; PBS (Control) 89.4 ± 9.3,117.9 ± 5.6
CC(C)(C)OC(=O)NC(Cc1cc(I)c(Oc2cc(I)c(O)c(I)c2)c(I)c1)C(=O)O (stereo not drawn) [Compound 7],change in vivo at 0.1 µM,[1]; [7],137 ± 7.5%
"CCNC(Cc1cc(I)c(Oc2cc(I)c(O)c(I)c2)c(I)c1)C(=O)OCC (stereo not drawn) [T4 analog 12, Ethyl-2-(ethylamino)-3-[4-(4-hydroxy-3,5-diiodophenoxy)-3,5-diiodophenyl]propanoate]",Hemoglobin (mg/mL) ± SEM,[2]; [9],0.4 ± 0.1 mg/mL
same,Mean Branch points,[1]; FGF (1.25 μg/ml) + T4 analog 12 (0.1 μM); PBS 73 ± 6,46 ± 2
same,"effect on FGF and T4 activity, CAM and matrigel assays (in words)",[1]; T4 analog of Example 12,entirely inhibiting FGF and T4 activity
same,"effect on angiogenesis, representative illustrations FIG. 23 (in words)",[1]; [8],anti-angiogenic
CC(C)[Si](OC(=O)Cc1cc(I)c(Oc2cc(I)c(OCC3CO3)c(I)c2)c(I)c1)(C(C)C)C(C)C (stereo not drawn),melting point,,120 °C
"O=C(Cc1cc(I)c(Oc2cc(I)c(OCCCl)c(I)c2)c(I)c1)NC1CCCCC1 [Tetrac analog 15, 2-(4-(4-(2-chloroethoxy)-3,5-diiodophenoxy)-3,5-diiodophenyl)-N-cyclohexylacetamide]",melting point,,263 °C
"FGF2: human recombinant FGF2, basic fibroblast growth factor, standard proangiogenic agent",Hemoglobin (mg/mL) ± SEM,"[2]; FGF 100 ng alone, Control 0.3 ± 0.1",2.4 ± 0.4 mg/mL
same,ANGIOGENESIS INDEX,[1]; 1 uM; n = 8 per group; PBS (Control) 89.4 ± 9.3,155 ± 9
same,Branch pts ± SEM,[1]; 1.25 μg/ml; PBS 76.0 ± 8.5,137.9 ± 7.5
same,Mean % of stimulation (comparing to PBS),[1]; FGF 1.25 μg/mL alone,178.1 ± 7.5%
same,Mean Branch points,[1]; FGF 1.25 μg/mL alone; n = 8; PBS 73 ± 6,130 ± 11
same,stimulation of branch formation,[1]; FGF2 1 μg/mL,2.2 fold
same,increase in angiogenesis,"[1]; FIG. 5, 3 experiments; concentration not given",2 fold

# Reference: patent US8802240B2, “Uses of formulations of thyroid hormone analogs and nanoparticulate forms thereof to increase chemosensitivity and radiosensitivity in tumor or cancer cells” (Nanopharmaceuticals LLC, priority 2011, dated 2014)
